Source: patent US20150284452A1, “ANTIMICROBIAL COMPOSITIONS” (priority 2012, published 2015)

Test system: S. aureus NRS384 (USA300)
Test: MIC assay at multiple inoculum sizes
Format: cell-based, Staphylococcus aureus
From the text: 5×10^6 cfu/ml and 75 nanomolar against an inoculum of 5×10^8 cfu/ml.

[1] = High Titer 5,000,000 CFU/well, ND = higher than highest tested concentration
[2] = High Titer 500,000,000 CFU/well, ND = higher than highest tested concentration
[3] = Low Titer 50,000,000 CFU/well, ND = higher than highest tested concentration

## Lysostaphin (Sigma L9043): lysostaphin control (Sigma L9043), glycylglycine endopeptidase
[1]
  MIC Rep 1: 0.0271 µM
  MIC Rep 2: 0.0271 µM
High Titer 5,000,000 CFU/well, average of replicates
  MIC Ave: 0.0271 µM
[2]
  MIC Ave: 0.2 µM
  MIC Rep 2: 0.2 µM
Low Titer 50,000 CFU/well
  MIC Rep 1: 0.054 µM
  MIC Rep 2: 0.0271 µM
Low Titer 50,000 CFU/well, average of replicates
  MIC Ave: 0.0407 µM
[3]
  MIC Ave: 0.2 µM
  MIC Rep 1: 0.2 µM
  MIC Rep 2: 0.2 µM
